Results from patent publication US11149033B2, “Heteroaryl compound, enantiomer, diastereomer or pharmaceutically acceptable salt thereof, and antiviral composition containing same as active ingredient” (priority 2016, dated 2021).

Assays:
[1] = tested on: A/California/07/2009 (H1N1); assay: Antiviral activity (drug efficacy evaluation by concentration) against A/California/07/2009 (H1N1); type: cell-based, A type influenza virus; conditions: Influenza A virus, H1N1; read-out: EC50
A/Perth/16/2009 (H3N2) = assay: Antiviral activity (drug efficacy evaluation by concentration) against A/Perth/16/2009 (H3N2); type: cell-based, A type influenza virus; conditions: Influenza A virus, H3N2; read-out: EC50
B/Florida/04/2006 = assay: Antiviral activity (drug efficacy evaluation by concentration) against B/Florida/04/2006; type: cell-based, B type influenza virus
[2] = CC50, third EC50/CC50 column pair (c7), beside the EC50 of c6

| Structure (SMILES) | EC50 [1] | CC50 (in vitro; CC50, beside the EC50 of c2) | CC50 (in vitro; CC50, beside the EC50 of c4) | CC50 (in vitro; [2]) | EC50 (A/Perth/16/2009 (H3N2)) | melting point | EC50 (B/Florida/04/2006) |
| --- | --- | --- | --- | --- | --- | --- | --- |
| Brc1ccc(Cc2nnc(/C=C/c3ccccc3Oc3ccccc3)o2)cc1 [Compound 127, (E)-2-(4-bromobenzyl)-5-(2-phenoxystyryl)-1,3,4-oxadiazole] | 34900 nM | > 50 µM | > 50 µM | > 50 µM | 24400 nM | 125.5 °C | 16000 nM |
| CC(C)c1ccccc1/C=C/c1nnc(Cc2cccc(Br)c2)o1 [Compound 130, 2-(3-bromobenzyl)-5-(2-isopropylstyryl)-1,3,4-oxadiazole] | 42400 nM | > 50 µM | > 50 µM | > 50 µM | 32800 nM | 79.3 °C | 36200 nM |
| CC(C)c1ccccc1/C=C/c1nnc(Cc2cccc3ccccc23)o1 [Compound 132, 2-(2-isopropylstyryl)-5-(naphthalen-1-ylmethyl)-1,3,4-oxadiazole] | 1520 nM | 10.8 µM | 12.2 µM | 13.6 µM | 1140 nM | 148.1 °C | 1580 nM |
| CC(C)c1cccc(/C=C/c2nnc(Cc3ccc(Br)cc3)o2)c1 [Compound 151, 2-(4-bromobenzyl)-5-(3-isopropylstyryl)-1,3,4-oxadiazole] | 21300 nM | > 50 µM | > 50 µM | > 50 µM | 6380 nM | 61.8 °C | 6390 nM |
| Fc1ccc(/C=C/c2nnc(Cc3ccccc3)o2)c(Cl)c1 [Compound 158, (E)-2-benzyl-5-(2-chloro-4-fluorostyryl)-1,3,4-oxadiazole] | > 50000 nM | > 50 µM | > 50 µM | > 50 µM | > 50000 nM | 125.9 °C | > 50000 nM |
| Clc1cc2c(cc1/C=C/c1nnc(Cc3ccc(Br)cc3)o1)OCO2 [Compound 162, 2-(4-bromobenzyl)-5-(2-(6-chlorobenzo[d][1,3]dioxol-5-yl)vinyl)-1,3,4-oxadiazole] | 30500 nM | > 50 µM | > 50 µM | > 50 µM | > 50000 nM | 186.2 °C | > 50000 nM |
| Brc1ccc(Cc2nnc(/C=C/c3ccccc3)o2)cc1 [Compound 165, 2-(4-bromobenzyl)-5-styryl-1,3,4-oxadiazole] | 1950 nM | 12.6 µM | 13.5 µM | 10.1 µM | 3760 nM | 110.6 °C | 2840 nM |
| CC(C)c1ccccc1/C=C/c1nnc(Cc2ccc(Br)cc2F)o1 [Compound 169, 2-(4-bromo-2-fluorobenzyl)-5-(2-isopropylstyryl)-1,3,4-oxadiazole] | 2130 nM | 20.3 µM | > 50 µM | 37.2 µM | 2220 nM | 71.9 °C | 3080 nM |
| Cc1ccccc1/C=C/c1nnc(Cc2ccc(Br)cc2)o1 [Compound 170, 2-(4-bromobenzyl)-5-(2-methylstyryl)-1,3,4-oxadiazole] | 2000 nM | 8.53 µM | 6.63 µM | 9.08 µM | 2040 nM | 108.5 °C | 2050 nM |
| Clc1ccc(/C=C/c2nnc(Cc3ccc(Br)cc3)o2)cc1 [Compound 171, 2-(4-bromobenzyl)-5-(4-chlorostyryl)-1,3,4-oxadiazole] | 3740 nM | > 50 µM | 49.5 µM | 36.2 µM | 3630 nM | 129 °C | 4300 nM |
| Brc1ccc(Cc2noc(/C=C/c3ccccc3)n2)cc1 [Compound 174, (E)-3-(4-bromobenzyl)-5-styryl-1,2,4-oxadiazole] | 3780 nM | 6.53 µM | 5.46 µM | 6.3 µM | 1540 nM | 86.7 °C | 1450 nM |
| Cc1ccc(F)c(Cc2nnc(/C=C/c3ccc(F)cc3Cl)o2)c1 [Compound 177, (E)-2-(2-chloro-4-fluorostyryl)-5-(2-fluoro-5-methylbenzyl)-1,3,4-oxadiazole] | 835 nM | > 50 µM | > 50 µM | > 50 µM | 753 nM | 136.9 °C | 1070 nM |
| Fc1ccc(/C=C/c2nnc(Cc3cccc(Br)c3)o2)c(Cl)c1 [Compound 178, (E)-2-(3-bromobenzyl)-5-(2-chloro-4-fluorostyryl)-1,3,4-oxadiazole] | 990 nM | > 50 µM | > 50 µM | > 50 µM | 750 nM | 121.7 °C | 950 nM |
| Fc1ccc(/C=C/c2nnc(Cc3ccc(Cl)nc3)o2)c(Cl)c1 [Compound 180, (E)-2-(2-chloro-4-fluorostyryl)-5-((6-chloropyridin-3-yl)methyl)-1,3,4-oxadiazole] | 1050 nM | > 50 µM | > 50 µM | > 50 µM | 510 nM | 163 °C | 980 nM |
| Cc1ccc(Cc2nnc(/C=C/c3ccc(F)cc3Cl)o2)cc1Br [Compound 181, (E)-2-(3-bromo-4-methylbenzyl)-5-(2-chloro-4-fluorostyryl)-1,3,4-oxadiazole] | 10900 nM | > 50 µM | > 50 µM | > 50 µM | 5560 nM | 139 °C | 8290 nM |
| CC(C)c1cccc(Cc2nnc(/C=C/c3ccc(F)cc3Cl)o2)c1 [Compound 182, (E)-2-(2-chloro-4-fluorostyryl)-5-(3-isopropylbenzyl)-1,3,4-oxadiazole] | 617 nM | > 50 µM | > 50 µM | > 50 µM | 373 nM | 117.3 °C | 549 nM |
| Brc1ccc(Cc2nc(/C=C/c3ccccc3)no2)cc1 [Compound 183, (E)-5-(4-bromobenzyl)-3-styryl-1,2,4-oxadiazole] | 1340 nM | > 50 µM | > 50 µM | > 50 µM | 904 nM | 78.4 °C | 1860 nM |
| Fc1ccc(/C=C/c2nnc(Cc3ccc(Br)c(F)c3)o2)c(Cl)c1 [Compound 184, (E)-2-(4-bromo-3-fluorobenzyl)-5-(2-chloro-4-fluorostyryl)-1,3,4-oxadiazole] | > 50000 nM | > 50 µM | > 50 µM | > 50 µM | > 50000 nM | 166.2 °C | > 50000 nM |
| Fc1ccc(/C=C/c2nnc(Cc3cccc4ccccc34)o2)c(Cl)c1 [Compound 185, (E)-2-(2-chloro-4-fluorostyryl)-5-(naphthalen-1-ylmethyl)-1,3,4-oxadiazole] | > 50000 nM | > 50 µM | > 50 µM | > 50 µM | > 50000 nM | 152.7 °C | > 50000 nM |
| Fc1ccccc1/C=C/c1nnc(Cc2cccc(Cl)c2)o1 [Compound 187, 2-(3-chlorobenzyl)-5-(2-fluorostyryl)-1,3,4-oxadiazole] | 1890 nM | > 50 µM | > 50 µM | > 50 µM | 1510 nM | 117.3 °C | 1700 nM |
